# According to ChEMBL document CHEMBL1201862, “PubChem BioAssay data set” (2004):
#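 Protocol summary: plate cells (96-well), add compound at 5 concentrations, incubate 48 h, interpolate endpoints linearly. The concentration for 50% growth inhibition is given as GI50.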 Activity calls are given as the source filed them. Cut-off read from the data, not from the text of the source: active = GI50 up to about 1.1 µM and inactive = higher.
# How the values were obtained:
# Assay in all cases: NCI-60 cell line screen, 48 h
# [1] = test system: 786-0
# [2] = test system: HL-60
# [3] = test system: SN12C
# [4] = test system: NCI-H23
# [5] = test system: NCI-H522
# [6] = test system: DMS-114
# [7] = test system: ACHN
# [8] = test system: OVCAR-3
# [9] = test system: SK-MEL-28
# [10] = test system: MOLT-4
# [11] = test system: K562
# [12] = test system: DMS-273
# [13] = test system: RXF 393
# [14] = test system: NCI-H226
# [15] = test system: SF-539
# [16] = test system: XF498
# [17] = test system: U-251
# [18] = test system: A549
# [19] = test system: NCI-H460
# [20] = test system: HOP-62
# [21] = test system: SW-620
# [22] = test system: OVCAR-4
# [23] = test system: HOP-92
# [24] = test system: SR
# [25] = test system: IGROV-1
# [26] = test system: SNB-78
# [27] = test system: SK-MEL-2
# [28] = test system: OVCAR-8
# [29] = test system: KM12
# [30] = test system: SNB-19
# [31] = test system: SK-MEL-5
# [32] = test system: OVCAR-5
# [33] = test system: KM-20L2
# [34] = test system: HCT-116
# [35] = test system: CAKI-1
# [36] = test system: M14
# [37] = test system: SF-295
# [38] = test system: SNB-75
# [39] = test system: UACC-257
# [40] = test system: UACC-62
# [41] = test system: CCRF-CEM
# [42] = test system: TK-10
# [43] = test system: UO-31
# [44] = test system: DLD-1
# [45] = test system: SK-OV-3
# [46] = test system: A498
# [47] = test system: Malme-3M
# [48] = test system: LXFL 529
# [49] = test system: EKVX
# [50] = test system: SF-268
# [51] = test system: M19-MEL
# [52] = test system: HT-29
# [53] = test system: COLO 205
# [54] = test system: LOX IMVI
# [55] = test system: RPMI-8226
# [56] = test system: HCT-15
compound,measurement,setting,value
C/C=C1/CCC2c3[nH]c4ccccc4c3CCN2C1 (centres undefined),GI50,[1],> 100 µM (inactive)
same,GI50,[2],58.2 µM (inactive)
same,GI50,[3],> 100 µM (inactive)
same,GI50,[4],> 100 µM (inactive)
same,GI50,[5],> 100 µM (inactive)
same,GI50,[6],93.8 µM (inactive)
same,GI50,[7],> 100 µM (inactive)
same,GI50,[8],> 100 µM (inactive)
same,GI50,[9],> 100 µM (inactive)
same,GI50,[10],> 100 µM (inactive)
same,GI50,[11],32 µM (inactive)
same,GI50,[12],> 100 µM (inactive)
same,GI50,[13],> 100 µM (inactive)
same,GI50,[14],57.5 µM (inactive)
same,GI50,[15],> 100 µM (inactive)
same,GI50,[16],55.6 µM (inactive)
same,GI50,[17],> 100 µM (inactive)
same,GI50,[18],> 100 µM (inactive)
same,GI50,[19],> 100 µM (inactive)
same,GI50,[20],> 100 µM (inactive)
same,GI50,[21],> 100 µM (inactive)
same,GI50,[22],42 µM (inactive)
same,GI50,[23],24.2 µM (inactive)
same,GI50,[24],> 100 µM (inactive)
same,GI50,[25],> 100 µM (inactive)
same,GI50,[26],> 100 µM (inactive)
same,GI50,[27],> 100 µM (inactive)
same,GI50,[28],> 100 µM (inactive)
same,GI50,[29],> 100 µM (inactive)
same,GI50,[30],> 100 µM (inactive)
same,GI50,[31],37.2 µM (inactive)
same,GI50,[32],> 100 µM (inactive)
same,GI50,[33],97.1 µM (inactive)
same,GI50,[34],66.5 µM (inactive)
same,GI50,[35],37.2 µM (inactive)
same,GI50,[36],14.4 µM (inactive)
same,GI50,[37],> 100 µM (inactive)
same,GI50,[38],66.4 µM (inactive)
same,GI50,[39],64.9 µM (inactive)
same,GI50,[40],60.8 µM (inactive)
same,GI50,[41],> 100 µM (inactive)
same,GI50,[42],> 100 µM (inactive)
same,GI50,[43],> 100 µM (inactive)
same,GI50,[44],> 100 µM (inactive)
same,GI50,[45],> 100 µM (inactive)
same,GI50,[46],> 100 µM (inactive)
same,GI50,[47],0.256 µM (active)
same,GI50,[48],> 100 µM (inactive)
same,GI50,[49],> 100 µM (inactive)
same,GI50,[50],> 100 µM (inactive)
same,GI50,[51],86.3 µM (inactive)
same,GI50,[52],45.7 µM (inactive)
Cc1ccc(-c2cc(-c3ccco3)nc(N)n2)o1,GI50,[1],> 100 µM (inactive)
same,GI50,[2],> 100 µM (inactive)
same,GI50,[3],> 100 µM (inactive)
same,GI50,[4],> 100 µM (inactive)
same,GI50,[5],> 100 µM (inactive)
same,GI50,[7],> 100 µM (inactive)
same,GI50,[53],> 100 µM (inactive)
same,GI50,[8],> 100 µM (inactive)
same,GI50,[9],> 100 µM (inactive)
same,GI50,[10],> 100 µM (inactive)
same,GI50,[11],> 100 µM (inactive)
same,GI50,[12],> 100 µM (inactive)
same,GI50,[13],> 100 µM (inactive)
same,GI50,[14],> 100 µM (inactive)
same,GI50,[15],> 100 µM (inactive)
same,GI50,[16],> 100 µM (inactive)
same,GI50,[54],> 100 µM (inactive)
same,GI50,[18],> 100 µM (inactive)
same,GI50,[19],> 100 µM (inactive)
same,GI50,[20],> 100 µM (inactive)
same,GI50,[21],> 100 µM (inactive)
same,GI50,[22],> 100 µM (inactive)
same,GI50,[24],> 100 µM (inactive)
same,GI50,[25],> 100 µM (inactive)
same,GI50,[26],> 100 µM (inactive)
same,GI50,[27],> 100 µM (inactive)
same,GI50,[28],> 100 µM (inactive)
same,GI50,[55],> 100 µM (inactive)
same,GI50,[29],> 100 µM (inactive)
same,GI50,[30],> 100 µM (inactive)
same,GI50,[31],> 100 µM (inactive)
same,GI50,[32],> 100 µM (inactive)
same,GI50,[33],> 100 µM (inactive)
same,GI50,[34],> 100 µM (inactive)
same,GI50,[36],> 100 µM (inactive)
same,GI50,[37],> 100 µM (inactive)
same,GI50,[38],37.2 µM (inactive)
same,GI50,[40],> 100 µM (inactive)
same,GI50,[41],> 100 µM (inactive)
same,GI50,[42],> 100 µM (inactive)
same,GI50,[43],58.2 µM (inactive)
same,GI50,[47],> 100 µM (inactive)
same,GI50,[48],> 100 µM (inactive)
same,GI50,[49],65.2 µM (inactive)
same,GI50,[56],> 100 µM
same,GI50,[50],> 100 µM (inactive)
same,GI50,[52],> 100 µM (inactive)
